Paper PMC7150991 (Viruses, 2020)
“And” between values parts separate entries of the source, which are not always exact repeats. Equal values may be shown once. Read-outs that look alike come from different tables or passages of the source.

How the values were obtained:
influenza A virus NP = format: cell-based, human
influenza virus [1] = conditions: MDCK cells, ref Wu et al. [20], cited from earlier work
influenza A virus [2] = test: microbe, parasite or virus in culture; format: cell-based; conditions: A549, 48 h
HAE cultures = test: Cytotoxicity in HAE cultures; format: cell-based, human; conditions: up to 160 µM (0.054 µg/mL)
influenza A virus [3] = test: microbe, parasite or virus in culture; format: cell-based; conditions: 72 h
MDCK cells = test: XTT cell viability assay, MDCK cells; format: cell-based, canine; conditions: 48 h
influenza virus [4] = conditions: cited from earlier work
H1N1 virus = conditions: MDCK cells; ref Cecil et al. [19]; cited from earlier work
influenza A virus [5] = test: microbe, parasite or virus in culture; format: cell-based; conditions: MDCK, 48 h
A549 cells = test: XTT cell viability assay, A549 cells; format: cell-based, human; conditions: 48 h
LET1 cells = test: XTT cell viability assay, LET1 cells; format: cell-based, mouse; conditions: 48 h
influenza A virus [6] = test: microbe, parasite or virus in culture; format: cell-based; conditions: 48 h
ERK1 = test: cells; format: cell-based, human

## COc1ccc2cc3[n+](cc2c1OC)CCc1cc2c(cc1-3)OCO2 [BBR, Berberine chloride hydrate]
Influenza A virus NP
  accumulation of influenza A virus NP in nuclear fractions: did not cause significant accumulation
  decrease of NP signal in cytoplasmatic fraction: about 40 % inhibition
  increase of viral NP in nuclear fractions compared to untreated infection: ~ 3 fold
Influenza virus [1]; conversion of 0.025 µg/mL, read-out: IC50
  IC50: ~67 µM
Influenza virus [1]
  IC50: 0.025 µg/mL
Influenza A virus [2]
  IC50: 17 µM and 6 µg/mL
HAE cultures
  cytotoxicity at tested concentrations: did not observe cytotoxicity
Influenza A virus [3]
  IC50: 16 µM and 5 µg/mL
MDCK cells
  TC50: 1035 µM
MDCK cells; value in brackets
  TC50: 0.350 µg/mL
Influenza virus [4]; mice models, reduced from 90%
  mice mortality: 55%
Influenza virus [4]; mice, day 2 post-infection
  virus titers in the lungs: decreased
H1N1 virus
  inhibition of virus replication: No inhibition
Influenza A virus [5]
  IC50: 52 µM and 17 µg/mL
A549 cells
  TC50: 107 µM
A549 cells; value in brackets
  TC50: 0.036 µg/mL
LET1 cells
  TC50: 521 µM
LET1 cells; value in brackets
  TC50: 0.176 µg/mL
Influenza A virus [6]
  IC50: 4 µM and 1 µg/mL
ERK1; Homo sapiens, A549, 12 h, read-out: inhibition of ERK1 activation (phospho-ERK1, Western blot)
  inhibition at 20 µM: 45%

## N#CC(=C(/N)Sc1ccccc1N)/C(C#N)=C(/N)Sc1ccccc1N [U0126, reference compound]
Influenza A virus NP
  decrease of NP signal in cytoplasmatic fraction: about 40 % inhibition
  increase of viral NP in nuclear fractions compared to untreated infection: ~ 3 fold
ERK1
  inhibition of ERK1 activation (phospho-ERK1, Western blot): 76 % inhibition
